Experimental data from patent US12630600B2 (MEDIMMUNE LIMITED, priority 2022, dated 2026).
Starred links: 1 amine or outer side, 2 acyl side, 3 side chain; linkers in the order of their positions; H or OH if unused. Non-standard residues stand in square brackets, D forms with d. Residues, ends and D or L forms follow the SMILES beside them. Groups on a side chain read outwards from the residue. *: point of attachment. C20 diacid = O=C(O)CCCCCCCCCCCCCCCCCCC(=O)*; C18 diacid = O=C(O)CCCCCCCCCCCCCCCCC(=O)*; Dip = N[C@H](C(=O)O)C(c1ccccc1)c1ccccc1; γGlu = O=C(O)[C@H](CCC(=O)[*:2])N[*:1]; Palmitoyl = CCCCCCCCCCCCCCCC(=O)*; αMeF = C[C@](N)(Cc1ccccc1)C(=O)O; PEG4 = NCCOCCOCCOCCOCCC(=O)O; AEEA = NCCOCCOCC(=O)O; Aib = CC(C)(N)C(=O)O

What was measured:
wildtype (WT) mice = test: Glucose change in wildtype mice; assay type: in vivo, mouse; details: s.c.
Description: […] and wildtype (WT) mice at 8-14 weeks of age were singly housed on standard chow diet (Envigo, 2918) and automatic water. They acclimated for a minimum of ˜1-2 weeks, and mice were sorted into groups (n=4-8/group) based on body weight. On day of study, mice were fasted briefly for 2 hrs prior to study start. In some studies, mice were pre-treated with octreotide (BaChem, 10 mg/kg) at 30 minutes prior to peptide injection. Glucose was measured via glucometer at various timepoints including −30 min (prior to octreotide when used in studies), 0 min (before peptide dose), 30, 60, 120, 180, 240, and 360 minutes. Since these studies are acute in nature, mice were re-used for multiple studies (no more than 3) and always allowed at least a minimum wash-out period of 1 week.

[1] = target: T1, human glucagon receptor (hGCGR) (Homo sapiens, UniProt P47871); test: cAMP production (HTRF) in CHO cells expressing human glucagon receptor; assay type: cell-based; details: Table 7, modification at position 20, CHO cells expressing hGCGR, geometric mean, read-out: hGluc-R EC50
T1 construct: expressed in transfected cells; host or cells: CHO

neprilysin = target: T2, neprilysin (Homo sapiens, UniProt P08473); test: Proteolytic resistance to neprilysin; assay type: in vitro ADME; details: pH 8.3
T2 construct: purchased R&D Systems 1182-ZNC-010
Description: 10.0 μg (˜10 units) recombinant Neprilysin (R&D Systems: 1182-ZNC-010) was reconstituted to 100 μL (100 μg/mL, ˜100 units/mL) in assay buffer (50 mM Tris, 50 mM NaCl, 50 mM NaHCO3, adjusted to pH 8.3) to give the enzyme stock solution. Peptide stock solutions were prepared to a concentration of ˜250 μM (˜1.0 mg/mL of 4 kDa peptide) in assay buffer. 100 μL (10 μg, ˜10 units) of neprilysin stock solution was added to 100 μL of peptide stock solution (1.0 mg/mL, ˜100 μg of peptide) and the mixture was co-incubated in a temperature regulated incubator at 37° C. for the duration of the experiment. 25 μL aliquots (˜12.5 μg initial peptide) of the peptide-enzyme mixture were periodically withdrawn (t=0, 30 mins, 1 h, 2 h, 4 h and 24 h) and quenched immediately by addition to an equal volume ([…]) of 10% TFA (v/v) in 1:1 water/acetonitrile to arrest proteolytic activity. The quenched aliquot centrifuged at 7800 rpm, and 30 μL of the supernatant was analyzed by analytical RP-HPLC as follows: Analytical RP-HPLC method: Agilent Polaris C8-A column (4.6×100 mm, 3 micron) eluted with a linear binary gradient of 10-90% MeCN (0.1% TFA v/v) in water (0.1% TFA v/v) over either 10 or 15 mins at 1.5 mL min^−1 at 40° C. with detection by UV absorption at 210 nm. Manual integration (AUC) allowed estimation of remaining intact peptide over the time course of the experiment.

[2] = target: T3, human GLP-1 receptor (hGLP-1R) (Homo sapiens, UniProt P43220); test: cAMP production (HTRF) in CHO cells expressing human GLP-1 receptor; assay type: cell-based
T3 construct: expressed in transfected cells; host or cells: CHO
T3 sequence (P43220 24-463): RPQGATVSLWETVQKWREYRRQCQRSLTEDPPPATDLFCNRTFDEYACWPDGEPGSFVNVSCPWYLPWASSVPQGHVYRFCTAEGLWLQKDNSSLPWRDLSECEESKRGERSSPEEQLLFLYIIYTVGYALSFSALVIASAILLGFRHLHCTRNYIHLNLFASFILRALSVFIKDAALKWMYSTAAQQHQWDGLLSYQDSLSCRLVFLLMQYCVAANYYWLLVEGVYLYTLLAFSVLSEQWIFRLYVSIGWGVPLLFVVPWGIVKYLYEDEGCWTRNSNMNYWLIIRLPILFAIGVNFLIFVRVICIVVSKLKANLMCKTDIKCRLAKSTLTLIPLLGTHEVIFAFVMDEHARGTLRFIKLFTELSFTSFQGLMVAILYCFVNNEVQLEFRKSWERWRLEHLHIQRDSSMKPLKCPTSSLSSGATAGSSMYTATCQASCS

T2 sequence (P08473 whole entry): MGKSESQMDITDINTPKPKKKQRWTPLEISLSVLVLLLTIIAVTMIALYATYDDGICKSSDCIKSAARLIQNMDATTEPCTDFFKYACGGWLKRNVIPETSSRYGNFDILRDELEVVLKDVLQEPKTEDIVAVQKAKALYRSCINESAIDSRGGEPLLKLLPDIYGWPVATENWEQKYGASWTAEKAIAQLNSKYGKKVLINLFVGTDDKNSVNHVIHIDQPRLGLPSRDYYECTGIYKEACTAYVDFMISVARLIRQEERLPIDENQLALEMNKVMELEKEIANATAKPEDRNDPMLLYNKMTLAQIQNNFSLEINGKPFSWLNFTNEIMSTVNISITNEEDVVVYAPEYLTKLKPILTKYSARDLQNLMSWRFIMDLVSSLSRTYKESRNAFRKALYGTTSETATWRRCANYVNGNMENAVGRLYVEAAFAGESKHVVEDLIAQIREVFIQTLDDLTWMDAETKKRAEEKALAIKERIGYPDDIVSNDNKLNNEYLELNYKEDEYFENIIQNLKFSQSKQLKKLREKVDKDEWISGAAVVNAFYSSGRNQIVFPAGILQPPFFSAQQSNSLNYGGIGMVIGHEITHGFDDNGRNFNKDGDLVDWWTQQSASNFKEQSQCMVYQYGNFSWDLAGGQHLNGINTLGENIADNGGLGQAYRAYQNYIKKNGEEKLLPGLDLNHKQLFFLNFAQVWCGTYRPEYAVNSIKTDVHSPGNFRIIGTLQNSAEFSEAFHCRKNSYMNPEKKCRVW
T1 sequence (P47871 26-477): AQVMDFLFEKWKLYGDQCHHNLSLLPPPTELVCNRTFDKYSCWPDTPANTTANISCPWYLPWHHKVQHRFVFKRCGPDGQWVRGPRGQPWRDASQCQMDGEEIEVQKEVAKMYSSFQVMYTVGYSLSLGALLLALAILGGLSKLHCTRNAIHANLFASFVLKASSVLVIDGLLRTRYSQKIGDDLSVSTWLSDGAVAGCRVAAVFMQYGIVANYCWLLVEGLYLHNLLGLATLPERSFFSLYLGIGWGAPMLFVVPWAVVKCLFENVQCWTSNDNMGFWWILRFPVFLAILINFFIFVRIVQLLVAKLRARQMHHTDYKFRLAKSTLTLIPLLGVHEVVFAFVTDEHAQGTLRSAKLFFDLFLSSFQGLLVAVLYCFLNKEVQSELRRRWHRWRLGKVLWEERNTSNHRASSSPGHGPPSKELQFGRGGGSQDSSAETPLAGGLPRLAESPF

CC(C)C[C@H](NC(=O)[C@H](Cc1c[nH]c2ccccc12)NC(=O)[C@H](CCCNC(=N)N)NC(=O)[C@@H](NC(=O)[C@H](Cc1ccccc1)NC(=O)[C@H](CC(=O)O)NC(=O)[C@H](CCC(N)=O)NC(=O)[C@H](C)NC(=O)[C@H](CCCNC(=N)N)NC(=O)[C@H](CCCCNC(=O)COCCOCCNC(=O)COCCOCCNC(=O)CC[C@H](NC(=O)CCCCCCCCCCCCCCCCC(=O)O)C(=O)O)NC(=O)[C@@H](NC(=O)[C@H](CC(=O)O)NC(=O)[C@H](CC(C)C)NC(=O)[C@](C)(Cc1ccccc1)NC(=O)[C@H](CCCCN)NC(=O)[C@H](CO)NC(=O)[C@@H](NC(=O)[C@H](CC(=O)O)NC(=O)[C@H](CO)NC(=O)[C@@H](NC(=O)[C@H](Cc1ccccc1)NC(=O)[C@@H](NC(=O)CNC(=O)[C@H](CCC(N)=O)NC(=O)C(C)(C)NC(=O)[C@@H](N)Cc1c[nH]cn1)[C@@H](C)O)[C@@H](C)O)C(C)C)[C@@H](C)O)C(C)C)C(=O)N[C@@H](CC(C)C)C(=O)N[C@@H](CCC(=O)O)C(=O)NC(C)(C)C(=O)NCC(=O)O [Peptide 140] (H-H[Aib]QGTFTSDVSK[αMeF]LDTK([AEEA-AEEA-γGlu-C18 diacid])RAQDFVRWLLE[Aib]G-OH; N-terminus assumed)
WT % glucose change 60 min (wildtype (WT) mice; 30 nmol/kg, no somatostatin pretreatment): −29.0%

CC[C@H](C)[C@H](NC(=O)C(C)(C)NC(=O)[C@H](CCC(N)=O)NC(=O)[C@@H](NC(=O)[C@](C)(Cc1ccccc1)NC(=O)[C@H](CC(=O)O)NC(=O)[C@H](CCCCNC(=O)COCCOCCNC(=O)COCCOCCNC(=O)CC[C@H](NC(=O)CCCCCCCCCCCCCCCCC(=O)O)C(=O)O)NC(=O)[C@H](C)NC(=O)[C@H](C)NC(=O)[C@H](CCCNC(=N)N)NC(=O)[C@H](CO)NC(=O)[C@H](CC(=O)O)NC(=O)[C@H](CC(C)C)NC(=O)[C@](C)(Cc1ccccc1)NC(=O)[C@H](CCCCN)NC(=O)[C@H](CO)NC(=O)[C@@H](NC(=O)[C@H](CC(=O)O)NC(=O)[C@H](CO)NC(=O)[C@@H](NC(=O)[C@](C)(Cc1ccccc1)NC(=O)[C@H](CO)NC(=O)CNC(=O)[C@H](Cc1c[nH]cn1)NC(=O)C(C)(C)NC(=O)[C@@H](N)Cc1c[nH]cn1)[C@@H](C)O)C(C)C)C(C)C)C(=O)N[C@@H](C)C(=O)N[C@@H](CC(N)=O)C(=O)N[C@H](C(N)=O)[C@@H](C)O [Peptide 224, H-Aib-H-G-S-αMePhe-T-S-D-V-S-K-αMePhe-L-D-S-R-A-A-K(ε-(O2Oc)-(O2Oc)-γE-C18diacid)20-D-αMePhe-V-Q-Aib-I-A-N-T-amide] (H-H[Aib]HGS[αMeF]TSDVSK[αMeF]LDSRAAK([AEEA-AEEA-γGlu-C18 diacid])D[αMeF]VQ[Aib]IANT-NH2)
WT % glucose change 120 min (wildtype (WT) mice; 10 nmol/kg, somatostatin pretreatment 30 min prior to cpd): −40.0%

CCCCCCCCCCCCCCCC(=O)N[C@@H](CCC(=O)N[C@@H](CCC(=O)NCCOCCOCCOCCOCCC(=O)NCCCC[C@H](NC(=O)[C@H](CO)NC(=O)[C@H](CC(=O)O)NC(=O)[C@H](CC(C)C)NC(=O)[C@@H](NC(=O)[C@H](CCCCN)NC(=O)[C@H](CO)NC(=O)[C@@H](NC(=O)[C@H](CC(=O)O)NC(=O)[C@H](CO)NC(=O)[C@@H](NC(=O)[C@](C)(Cc1ccccc1)NC(=O)[C@H](CO)NC(=O)CNC(=O)[C@H](CCC(N)=O)NC(=O)C(C)(C)NC(=O)[C@@H](N)Cc1c[nH]cn1)[C@@H](C)O)C(C)C)C(c1ccccc1)c1ccccc1)C(=O)N[C@@H](CCCNC(=N)N)C(=O)N[C@@H](C)C(=O)N[C@@H](CCC(N)=O)C(=O)N[C@@H](CC(=O)O)C(=O)N[C@@](C)(Cc1ccccc1)C(=O)N[C@H](C(=O)N[C@@H](CCC(=O)O)C(=O)NC(C)(C)C(=O)N[C@@H](CC(C)C)C(=O)N[C@@H](CCC(=O)O)C(=O)N[C@@H](C)C(=O)NCC(=O)NCC(N)=O)C(C)C)C(=O)O)C(=O)O [Peptide 43] (H-H[Aib]QGS[αMeF]TSDVSK[Dip]LDSK([PEG4-γGlu-γGlu-Palmitoyl])RAQD[αMeF]VE[Aib]LEAGG-NH2; N-terminus assumed)
WT % glucose change 120 min (wildtype (WT) mice; 3 nmol/kg, no somatostatin pretreatment): −56.0%

CC[C@H](C)[C@H](NC(=O)[C@H](Cc1c[nH]c2ccccc12)NC(=O)[C@H](CCC(N)=O)NC(=O)[C@@H](NC(=O)[C@H](Cc1ccccc1)NC(=O)[C@H](CC(=O)O)NC(=O)[C@H](CCCCNC(=O)COCCOCCNC(=O)COCCOCCNC(=O)CC[C@H](NC(=O)CC[C@H](NC(=O)CCCCCCCCCCCCCCCCCCC(=O)O)C(=O)O)C(=O)O)NC(=O)[C@H](C)NC(=O)[C@H](C)NC(=O)[C@H](CCCNC(=N)N)NC(=O)[C@H](CO)NC(=O)[C@H](CC(=O)O)NC(=O)[C@H](CC(C)C)NC(=O)[C@](C)(Cc1ccccc1)NC(=O)[C@H](CCCCN)NC(=O)[C@H](CO)NC(=O)[C@@H](NC(=O)[C@H](CC(=O)O)NC(=O)[C@H](CO)NC(=O)[C@@H](NC(=O)[C@H](Cc1ccccc1)NC(=O)[C@H](CO)NC(=O)CNC(=O)[C@H](Cc1c[nH]cn1)NC(=O)C(C)(C)NC(=O)[C@@H](N)Cc1c[nH]cn1)[C@@H](C)O)C(C)C)C(C)C)C(=O)N[C@@H](C)C(=O)N[C@@H](CC(N)=O)C(=O)N[C@H](C(N)=O)[C@@H](C)O [Peptide 290] (H-H[Aib]HGSFTSDVSK[αMeF]LDSRAAK([AEEA-AEEA-γGlu-γGlu-C20 diacid])DFVQWIANT-NH2; N-terminus assumed)
EC50 [1]: 0.26 nM
remaining at 4 h, 125 µM (neprilysin; isolated enzyme neprilysin): 89%
remaining at 24 h, 125 µM (neprilysin; isolated enzyme neprilysin): 82%
% intact peptide over time, Neprilysin (neprilysin): 100%
EC50 ([2]; Table 7, modification at position 20, CHO cells expressing hGLP-1R, cAMP, geometric mean, read-out: hGLP-1R EC50): 0.347 nM
% Relative Potency Ratio ([2]; Table 7, % GLP-1R activity relative to GLP-1 / % GlucR activity relative to glucagon): 1.5

CC[C@H](C)[C@H](NC(=O)C(C)(C)NC(=O)[C@H](CCC(=O)O)NC(=O)[C@@H](NC(=O)[C@](C)(Cc1ccccc1)NC(=O)[C@H](CC(=O)O)NC(=O)[C@H](CCCNC(=N)N)NC(=O)[C@H](C)NC(=O)[C@H](C)NC(=O)[C@H](CCCCNC(=O)COCCOCCNC(=O)COCCOCCNC(=O)CC[C@H](NC(=O)CCCCCCCCCCCCCCCCC(=O)O)C(=O)O)NC(=O)[C@H](CO)NC(=O)[C@H](CC(=O)O)NC(=O)[C@H](CC(C)C)NC(=O)[C@](C)(Cc1ccccc1)NC(=O)[C@H](CCCCN)NC(=O)[C@H](CO)NC(=O)[C@@H](NC(=O)[C@H](CC(=O)O)NC(=O)[C@H](CO)NC(=O)[C@@H](NC(=O)[C@](C)(Cc1ccccc1)NC(=O)[C@H](CO)NC(=O)CNC(=O)[C@H](Cc1c[nH]cn1)NC(=O)C(C)(C)NC(=O)[C@@H](N)Cc1c[nH]cn1)[C@@H](C)O)C(C)C)C(C)C)C(=O)N[C@@H](C)C(=O)N[C@@H](CC(N)=O)C(=O)N[C@H](C(N)=O)[C@@H](C)O [Peptide 15] (H-H[Aib]HGS[αMeF]TSDVSK[αMeF]LDSK([AEEA-AEEA-γGlu-C18 diacid])AARD[αMeF]VE[Aib]IANT-NH2; N-terminus assumed)
% intact peptide over time, Neprilysin (neprilysin): 100%

CC[C@H](C)[C@H](NC(=O)C(C)(C)NC(=O)[C@H](CCC(N)=O)NC(=O)[C@@H](NC(=O)[C@](C)(Cc1ccccc1)NC(=O)[C@H](CC(=O)O)NC(=O)[C@H](CCCCNC(=O)COCCOCCNC(=O)COCCOCCNC(=O)CC[C@H](NC(=O)CC[C@H](NC(=O)CCCCCCCCCCCCCCCCCCC(=O)O)C(=O)O)C(=O)O)NC(=O)[C@H](C)NC(=O)[C@H](C)NC(=O)[C@H](CCCNC(=N)N)NC(=O)[C@H](CO)NC(=O)[C@H](CC(=O)O)NC(=O)[C@H](CC(C)C)NC(=O)[C@H](Cc1ccc(O)cc1)NC(=O)[C@H](CCCCN)NC(=O)[C@H](CO)NC(=O)[C@@H](NC(=O)[C@H](CC(=O)O)NC(=O)[C@H](CO)NC(=O)[C@@H](NC(=O)[C@](C)(Cc1ccccc1)NC(=O)[C@H](CO)NC(=O)CNC(=O)[C@H](Cc1c[nH]cn1)NC(=O)C(C)(C)NC(=O)[C@@H](N)Cc1c[nH]cn1)[C@@H](C)O)C(C)C)C(C)C)C(=O)N[C@@H](C)C(=O)N[C@@H](CC(N)=O)C(=O)N[C@H](C(N)=O)[C@@H](C)O [Peptide 283] (H-H[Aib]HGS[αMeF]TSDVSKYLDSRAAK([AEEA-AEEA-γGlu-γGlu-C20 diacid])D[αMeF]VQ[Aib]IANT-NH2)
% intact peptide over time, Neprilysin (neprilysin): 100%
